pIC50: −log10 of the molar value. Read-outs that look alike come from different tables or passages of the source. Each block holds one compound with its values, some of them ahead of it.
Experiments:
P. berghei [1] = settings: mice, oral dosing; ref [29]; cited from earlier work
hDHODH = hDHODH (Homo sapiens, UniProt Q02127); settings: cited from earlier work
P. falciparum 3D7 cells = settings: read-out: EC50 (μM) Pf3D7; clone 3D7; ref [27],[29]; cited from earlier work
PfDHODH = molecular target: T1, PfDHODH (Plasmodium falciparum, UniProt Q08210); experiment: biochemical; type: biochemical; settings: for fold less potent against PfDHODH than the comparable triazolopyrimidine 1: reduction in binding affinity/activity relative to 1
T1 sequence (Q08210 24-569): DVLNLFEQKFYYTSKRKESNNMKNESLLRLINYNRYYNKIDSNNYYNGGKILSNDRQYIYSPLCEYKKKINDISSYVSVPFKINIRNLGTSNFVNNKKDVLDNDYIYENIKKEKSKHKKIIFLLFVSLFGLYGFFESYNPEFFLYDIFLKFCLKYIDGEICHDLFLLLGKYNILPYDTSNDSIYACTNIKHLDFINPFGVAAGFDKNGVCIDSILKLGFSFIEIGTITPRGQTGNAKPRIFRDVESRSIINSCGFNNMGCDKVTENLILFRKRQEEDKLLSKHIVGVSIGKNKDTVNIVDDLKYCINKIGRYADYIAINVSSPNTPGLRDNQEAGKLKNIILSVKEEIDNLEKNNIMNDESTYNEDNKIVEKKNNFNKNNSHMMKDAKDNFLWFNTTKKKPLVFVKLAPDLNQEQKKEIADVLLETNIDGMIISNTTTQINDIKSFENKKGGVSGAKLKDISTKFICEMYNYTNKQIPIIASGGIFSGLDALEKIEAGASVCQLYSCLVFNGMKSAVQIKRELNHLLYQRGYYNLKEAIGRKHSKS

[2] = In vitro metabolic stability in human liver microsomes; type: in vitro ADME
[3] = Mouse pharmacokinetics after single oral dose; type: in vivo; settings: mice
[4] = In vitro metabolic stability in mouse liver microsomes; type: in vitro ADME
P. berghei [5] = experiment: P. berghei mouse in vivo efficacy model; parameters: species or system Plasmodium berghei; settings: mice
PbDHODH = PbDHODH (Plasmodium berghei, UniProt A0A509AEH5); experiment: PbDHODH steady-state colorimetric DCIP enzyme assay; type: biochemical; settings: relative to 2
Chain of PbDHODH (A0A509AEH5 132-517 limits assumed): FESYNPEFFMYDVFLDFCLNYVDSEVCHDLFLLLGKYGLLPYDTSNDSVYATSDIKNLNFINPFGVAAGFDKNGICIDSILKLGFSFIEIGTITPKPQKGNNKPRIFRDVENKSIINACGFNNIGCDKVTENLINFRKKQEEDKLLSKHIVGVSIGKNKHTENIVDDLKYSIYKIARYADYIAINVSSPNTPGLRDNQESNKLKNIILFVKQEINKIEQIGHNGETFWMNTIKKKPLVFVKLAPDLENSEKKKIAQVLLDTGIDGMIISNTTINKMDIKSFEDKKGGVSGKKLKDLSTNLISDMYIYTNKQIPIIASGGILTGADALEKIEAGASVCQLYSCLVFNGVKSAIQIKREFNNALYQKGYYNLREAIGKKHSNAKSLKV

[6] = human liver microsomes; ref Gujjar et al. [29]; cited from earlier work

Chain of hDHODH (Q02127 whole entry): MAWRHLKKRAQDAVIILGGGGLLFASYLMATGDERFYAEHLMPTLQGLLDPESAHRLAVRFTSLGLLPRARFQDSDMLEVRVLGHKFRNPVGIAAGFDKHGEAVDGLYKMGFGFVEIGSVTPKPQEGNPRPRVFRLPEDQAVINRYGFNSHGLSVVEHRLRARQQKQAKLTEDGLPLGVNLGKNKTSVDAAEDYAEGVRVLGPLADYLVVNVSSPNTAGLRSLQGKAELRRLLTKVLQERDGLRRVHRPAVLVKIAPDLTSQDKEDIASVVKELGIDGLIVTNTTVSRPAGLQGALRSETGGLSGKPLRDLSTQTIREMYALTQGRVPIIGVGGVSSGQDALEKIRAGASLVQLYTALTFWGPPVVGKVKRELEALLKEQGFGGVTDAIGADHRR

SMILES: Cc1cc(Nc2ccc3ccccc3c2)n2ncnc2n1 [Compound 1, (5-methyl-[1,2,4]triazolo[1,5-a]pyrimidin-7-yl)naphthalene-2-ylamine]
in vivo efficacy in the P. berghei model (in words) (P. berghei [1]): no anti-parasite activity | IC50 (hDHODH; read-out: IC50 (μM) hDHODH, ref [27],[29]): > 100 µM | activity against human DHODH (in words) (hDHODH; ref [26]–[28]): without inhibiting human DHODH | EC50 (P. falciparum 3D7 cells): 0.076 µM

SMILES: Cc1nc(Nc2ccc3ccccc3c2)c2nc[nH]c2n1 [Compound 9, 2-Methyl-N-(naphthalen-2-yl)-9H-purin-6-amine]
fold less potent against PfDHODH than the comparable triazolopyrimidine 1 (PfDHODH): ~ 9 fold

SMILES: Cc1cc(Nc2ccc(C(F)(F)F)cc2)n2ccnc2n1 [Compound 16, 7-Methyl-N-(4-(trifluoromethyl)phenyl)imidazo[1,2-a]pyrimidin-5-amine]
fold more potent against PfDHODH than the equivalent triazolopyrimidine 2 (PfDHODH; relative to 2): 4 fold | Putative metabolites ([2]; human liver microsomes): None detected | Predicted EH ([2]; human liver microsomes, predicted in vivo hepatic extraction ratio): 0.21 | microsomal CLint at 1 μM ([2]; human, pooled human liver microsomes): 4.7 µL/min/mg | adverse reactions following oral administration ([3]; 10 mg/kg oral): No adverse reactions were observed | peak plasma concentrations ([3]; single oral dose 10 mg/kg): 3.9 µM | time plasma levels maintained above 1 μM ([3]; single oral dose 10 mg/kg): about 4 h | Putative metabolites ([4]; mouse liver microsomes): None detected | Predicted EH ([4]; mouse liver microsomes, predicted in vivo hepatic extraction ratio): 0.59 | in vitro clearance class ([4]; mouse microsomes): intermediate | microsomal CLint at 1 μM ([4]; mouse, pooled mouse liver microsomes): 34 µL/min/mg | in vivo efficacy in the P. berghei model (in words) (P. berghei [5]): suppresses parasites in vivo | fold better potency against PbDHODH than 2 (PbDHODH): 2 fold

fold less potent against PfDHODH than the comparable triazolopyrimidine 1 (PfDHODH): 100 fold
SMILES: Cc1cc(Nc2ccc3ccccc3c2)n2ncnc2c1 [Compound 7, 7-Methyl-N-(naphthalen-2-yl)-[1,2,4]triazolo[1,5-a]pyridin-5-amine]

SMILES: Cc1cc(Nc2ccc(C(F)(F)F)cc2)n2ncnc2n1 [Compound 2, 5-methyl-N-(4-(trifluoromethyl)phenyl)-[1,2,4]triazolo[1,5-a]pyrimidin-7-amine]
in vivo efficacy in the P. berghei model (in words) (P. berghei [1]): able to suppress parasitemia | Predicted EH [6]: 0.29

SMILES: Cc1cc(NC(=O)c2ccc(C(F)(F)F)cc2)n2ncnc2n1 [Compound 5]
pIC50 (PfDHODH): < 4.00 | PfDHODH activity (in words) (PfDHODH): loss of activity

SMILES: Cc1cc(Nc2ccc3ccccc3c2)n2ccnc2n1 [Compound 6, 7-Methyl-N-(naphthalen-2-yl)imidazo[1,2-a]pyrimidin-5-amine]
fold less potent against PfDHODH than the comparable triazolopyrimidine 1 (PfDHODH): 3 fold

SMILES: Cc1cc(Nc2ccc3ccccc3c2)n2nccc2n1 [Compound 8, 5-Methyl-N-(naphthalen-2-yl)pyrazolo[1,5-a]pyrimidin-7-amine]
fold less potent against PfDHODH than the comparable triazolopyrimidine 1 (PfDHODH): ~ 8.5 fold

SMILES: Cc1cc(NC(=O)c2ccccc2)n2ncnc2n1 [Compound 4, N-(5-methyl-[1,2,4]triazolo[1,5-a]pyrimidin-7-yl)benzamide]
pIC50 (PfDHODH): < 4.00 | PfDHODH activity (in words) (PfDHODH): loss of activity

pIC50 (PfDHODH): < 4.60
SMILES: Cc1nc(Nc2ccc3ncccc3c2)c2nc[nH]c2n1 [Compound 14, N-(2-Methyl-9H-purin-6-yl)quinolin-6-amine]

pIC50 (PfDHODH): < 4.30 | PfDHODH activity (in words) (PfDHODH): inactivated
SMILES: Cc1cc(Nc2ccc3ccccc3c2)c2nncn2n1 [Compound 11, 6-Methyl-N-(naphthalen-2-yl)-[1,2,4]triazolo[4,3-b]pyridazin-8-amine]

pIC50 (PfDHODH): < 4.00 | PfDHODH activity (in words) (PfDHODH): inactivated
SMILES: Cc1nc(Nc2ccc3ccccc3c2)c2cn[nH]c2n1 [Compound 10, 6-Methyl-N-(naphthalen-2-yl)-1H-pyrazolo[3,4-d]pyrimidin-4-amine]

pIC50 (PfDHODH): < 4.00 | PfDHODH activity (in words) (PfDHODH): inactive
SMILES: Cc1nc(Nc2n[nH]cc2C#N)c2nc[nH]c2n1 [Compound 15, 3-(2-Methyl-9H-purin-6-ylamino)-1H-pyrazole-4-carbonitrile]

— PMC3446820 (Journal of medicinal chemistry, 2012)
